The values below are quoted from earlier work in publication PMC4226840, “An open-label study to determine the maximum tolerated dose of the multitargeted tyrosine kinase inhibitor CEP-11981 in patients with advanced cancer” (Investigational New Drugs, 2014).

By IC50 is commonly meant the point on the concentration scale where inhibition reaches its midpoint.

In one series the test system is VEGFR-2. The settings on record: HUVEC; cited from earlier work.
Series [1] concerns treatment refractory metastatic colorectal cancer. Set-up: method as in PMID 23177514. The settings on record: phase III, monotherapy, versus 5.0 months, P = 0.0052; cited from earlier work.

In the case of `Cc1ccc(Nc2nccc(N(C)c3ccc4c(C)n(C)nc4c3)n2)cc1S(N)(=O)=O` [pazopanib], the IC50 in the series on VEGFR-2 was […]. In the case of `CNC(=O)c1cc(Oc2ccc(NC(=O)Nc3ccc(Cl)c(C(F)(F)F)c3)c(F)c2)ccn1` [regorafenib], in series [1], the Overall survival is reported as 6.4 months.
